{"source": "ChEMBL document CHEMBL1201862", "about": "“PubChem BioAssay data set” (2004)", "test_in_all_cases": "NCI-60 cell line screen, 48 h", "key": {"ACHN": {"test_system": "ACHN"}, "CCRF-CEM": {"test_system": "CCRF-CEM"}, "HCC 2998": {"test_system": "HCC 2998"}, "IGROV-1": {"test_system": "IGROV-1"}, "K562": {"test_system": "K562"}, "MCF7": {"test_system": "MCF7"}, "MDA-MB-231": {"test_system": "MDA-MB-231"}, "MDA-MB-435": {"test_system": "MDA-MB-435"}, "NCI-H522": {"test_system": "NCI-H522"}, "OVCAR-3": {"test_system": "OVCAR-3"}, "SF-268": {"test_system": "SF-268"}, "SF-295": {"test_system": "SF-295"}, "SK-MEL-2": {"test_system": "SK-MEL-2"}, "SR": {"test_system": "SR"}, "T47D": {"test_system": "T47D"}, "TK-10": {"test_system": "TK-10"}, "UACC-62": {"test_system": "UACC-62"}, "UO-31": {"test_system": "UO-31"}, "LOX IMVI": {"test_system": "LOX IMVI"}, "SW-620": {"test_system": "SW-620"}}, "note": "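Grown in 96-well plates, cells were treated for 48 hours with each compound at five concentrations. Insufficient inhibition: endpoint recorded as highest concentration tested. At the GI50, growth is halved.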 Calls of active or inactive are those of the source. Cut-off read from the data, not from the text of the source: active = GI50 up to about 1.1 µM and inactive = higher."}
{"compound": "CC(=O)Oc1ccc2c(c1)c1c(OC(C)=O)c3ccccc3c(OC(C)=O)c1n2Cc1cccc(C)c1", "values": [{"measurement": "GI50", "setting": "ACHN", "value": "31.8 µM (inactive)"}, {"measurement": "GI50", "setting": "CCRF-CEM", "value": "17.1 µM (inactive)"}, {"measurement": "GI50", "setting": "HCC 2998", "value": "22.8 µM (inactive)"}, {"measurement": "GI50", "setting": "IGROV-1", "value": "21.2 µM (inactive)"}, {"measurement": "GI50", "setting": "K562", "value": "32.1 µM (inactive)"}, {"measurement": "GI50", "setting": "MCF7", "value": "44.3 µM (inactive)"}, {"measurement": "GI50", "setting": "MDA-MB-231", "value": "31.1 µM (inactive)"}, {"measurement": "GI50", "setting": "MDA-MB-435", "value": "65.6 µM (inactive)"}, {"measurement": "GI50", "setting": "NCI-H522", "value": "19.6 µM (inactive)"}, {"measurement": "GI50", "setting": "OVCAR-3", "value": "21.4 µM (inactive)"}, {"measurement": "GI50", "setting": "SF-268", "value": "29.8 µM (inactive)"}, {"measurement": "GI50", "setting": "SF-295", "value": "19.5 µM (inactive)"}, {"measurement": "GI50", "setting": "SK-MEL-2", "value": "20 µM (inactive)"}, {"measurement": "GI50", "setting": "SR", "value": "24.3 µM (inactive)"}, {"measurement": "GI50", "setting": "T47D", "value": "21.8 µM (inactive)"}, {"measurement": "GI50", "setting": "TK-10", "value": "50.8 µM (inactive)"}, {"measurement": "GI50", "setting": "UACC-62", "value": "45.4 µM (inactive)"}, {"measurement": "GI50", "setting": "UO-31", "value": "40 µM (inactive)"}]}
{"compound": "COC(=O)c1c(O)ccc2c1c1cc3ccccc3c(O)c1n2Cc1ccccc1Cl", "values": [{"measurement": "GI50", "setting": "ACHN", "value": "22.4 µM (inactive)"}, {"measurement": "GI50", "setting": "CCRF-CEM", "value": "34.7 µM (inactive)"}, {"measurement": "GI50", "setting": "HCC 2998", "value": "20 µM (inactive)"}, {"measurement": "GI50", "setting": "IGROV-1", "value": "19.4 µM (inactive)"}, {"measurement": "GI50", "setting": "K562", "value": "31.5 µM (inactive)"}, {"measurement": "GI50", "setting": "MCF7", "value": "30.3 µM (inactive)"}, {"measurement": "GI50", "setting": "MDA-MB-231", "value": "32.3 µM (inactive)"}, {"measurement": "GI50", "setting": "MDA-MB-435", "value": "18.5 µM (inactive)"}, {"measurement": "GI50", "setting": "NCI-H522", "value": "8.26 µM (inactive)"}, {"measurement": "GI50", "setting": "OVCAR-3", "value": "15.7 µM (inactive)"}, {"measurement": "GI50", "setting": "SF-268", "value": "19.3 µM (inactive)"}, {"measurement": "GI50", "setting": "SF-295", "value": "18.8 µM (inactive)"}, {"measurement": "GI50", "setting": "SK-MEL-2", "value": "17.7 µM (inactive)"}, {"measurement": "GI50", "setting": "SR", "value": "25.4 µM (inactive)"}, {"measurement": "GI50", "setting": "T47D", "value": "12.2 µM (inactive)"}, {"measurement": "GI50", "setting": "TK-10", "value": "37.2 µM (inactive)"}, {"measurement": "GI50", "setting": "UACC-62", "value": "23.4 µM (inactive)"}, {"measurement": "GI50", "setting": "UO-31", "value": "22.1 µM (inactive)"}]}
{"compound": "O=C1/C(=C/c2ccc(OC(=O)c3ccc(Cl)cc3)cc2)CCC/C1=C\\c1ccc(OC(=O)c2ccc(Cl)cc2)cc1", "values": [{"measurement": "GI50", "setting": "ACHN", "value": "> 100 µM (inactive)"}, {"measurement": "GI50", "setting": "CCRF-CEM", "value": "> 100 µM (inactive)"}, {"measurement": "GI50", "setting": "HCC 2998", "value": "> 100 µM (inactive)"}, {"measurement": "GI50", "setting": "IGROV-1", "value": "> 100 µM (inactive)"}, {"measurement": "GI50", "setting": "LOX IMVI", "value": "> 100 µM (inactive)"}, {"measurement": "GI50", "setting": "MCF7", "value": "> 100 µM (inactive)"}, {"measurement": "GI50", "setting": "MDA-MB-231", "value": "46.5 µM (inactive)"}, {"measurement": "GI50", "setting": "MDA-MB-435", "value": "> 100 µM (inactive)"}, {"measurement": "GI50", "setting": "NCI-H522", "value": "> 100 µM (inactive)"}, {"measurement": "GI50", "setting": "OVCAR-3", "value": "> 100 µM (inactive)"}, {"measurement": "GI50", "setting": "SF-268", "value": "> 100 µM (inactive)"}, {"measurement": "GI50", "setting": "SK-MEL-2", "value": "> 100 µM (inactive)"}, {"measurement": "GI50", "setting": "SR", "value": "> 100 µM (inactive)"}, {"measurement": "GI50", "setting": "SW-620", "value": "> 100 µM (inactive)"}, {"measurement": "GI50", "setting": "T47D", "value": "> 100 µM (inactive)"}, {"measurement": "GI50", "setting": "TK-10", "value": "94.8 µM (inactive)"}, {"measurement": "GI50", "setting": "UACC-62", "value": "> 100 µM (inactive)"}, {"measurement": "GI50", "setting": "UO-31", "value": "> 100 µM (inactive)"}]}
{"compound": "COCN(CCC1=CCCCC1)C(=O)OC", "values": [{"measurement": "GI50", "setting": "ACHN", "value": "> 100 µM (inactive)"}, {"measurement": "GI50", "setting": "HCC 2998", "value": "> 100 µM (inactive)"}, {"measurement": "GI50", "setting": "IGROV-1", "value": "> 100 µM (inactive)"}, {"measurement": "GI50", "setting": "K562", "value": "61.5 µM (inactive)"}, {"measurement": "GI50", "setting": "MCF7", "value": "43.1 µM (inactive)"}, {"measurement": "GI50", "setting": "MDA-MB-231", "value": "> 100 µM (inactive)"}, {"measurement": "GI50", "setting": "MDA-MB-435", "value": "> 100 µM (inactive)"}, {"measurement": "GI50", "setting": "NCI-H522", "value": "38.1 µM (inactive)"}, {"measurement": "GI50", "setting": "OVCAR-3", "value": "76.7 µM (inactive)"}, {"measurement": "GI50", "setting": "SF-268", "value": "> 100 µM (inactive)"}, {"measurement": "GI50", "setting": "SF-295", "value": "28.2 µM (inactive)"}, {"measurement": "GI50", "setting": "SK-MEL-2", "value": "> 100 µM (inactive)"}, {"measurement": "GI50", "setting": "SR", "value": "> 100 µM (inactive)"}, {"measurement": "GI50", "setting": "SW-620", "value": "> 100 µM (inactive)"}, {"measurement": "GI50", "setting": "T47D", "value": "89.1 µM (inactive)"}, {"measurement": "GI50", "setting": "TK-10", "value": "> 100 µM (inactive)"}, {"measurement": "GI50", "setting": "UACC-62", "value": "> 100 µM (inactive)"}, {"measurement": "GI50", "setting": "UO-31", "value": "46.3 µM (inactive)"}]}
{"compound": "O=C(NCc1ccccc1)c1cnc(Cl)cn1", "values": [{"measurement": "GI50", "setting": "ACHN", "value": "20.1 µM (inactive)"}, {"measurement": "GI50", "setting": "CCRF-CEM", "value": "23.1 µM (inactive)"}, {"measurement": "GI50", "setting": "HCC 2998", "value": "17.3 µM (inactive)"}, {"measurement": "GI50", "setting": "IGROV-1", "value": "42.8 µM (inactive)"}, {"measurement": "GI50", "setting": "LOX IMVI", "value": "28.8 µM (inactive)"}, {"measurement": "GI50", "setting": "MCF7", "value": "> 100 µM (inactive)"}, {"measurement": "GI50", "setting": "MDA-MB-231", "value": "85.5 µM (inactive)"}, {"measurement": "GI50", "setting": "MDA-MB-435", "value": "62.7 µM (inactive)"}, {"measurement": "GI50", "setting": "NCI-H522", "value": "2.12 µM (inactive)"}, {"measurement": "GI50", "setting": "OVCAR-3", "value": "31.2 µM (inactive)"}, {"measurement": "GI50", "setting": "SF-268", "value": "> 100 µM (inactive)"}, {"measurement": "GI50", "setting": "SF-295", "value": "> 100 µM (inactive)"}, {"measurement": "GI50", "setting": "SK-MEL-2", "value": "48.1 µM (inactive)"}, {"measurement": "GI50", "setting": "SR", "value": "20.7 µM (inactive)"}, {"measurement": "GI50", "setting": "SW-620", "value": "> 100 µM (inactive)"}, {"measurement": "GI50", "setting": "T47D", "value": "74 µM (inactive)"}, {"measurement": "GI50", "setting": "TK-10", "value": "> 100 µM (inactive)"}, {"measurement": "GI50", "setting": "UACC-62", "value": "> 100 µM (inactive)"}, {"measurement": "GI50", "setting": "UO-31", "value": "18.1 µM (inactive)"}]}
{"compound": "C/C=C1/CN2[C@@H](C3=C[C@@H]4[C@@H]5N(C3=O)c3ccccc3[C@@]53CCN5C/C(=C/C)[C@@H]4C[C@H]53)C[C@@]34c5ccccc5N5C(=O)CC=C([C@H]1C[C@H]23)[C@H]54", "note": "[ISOSUNGUCINE]", "values": [{"measurement": "GI50", "setting": "ACHN", "value": "5.81 µM (inactive)"}, {"measurement": "GI50", "setting": "CCRF-CEM", "value": "1.1 µM (active)"}, {"measurement": "GI50", "setting": "HCC 2998", "value": "2.43 µM (inactive)"}, {"measurement": "GI50", "setting": "K562", "value": "2.05 µM (inactive)"}, {"measurement": "GI50", "setting": "MCF7", "value": "3.46 µM (inactive)"}, {"measurement": "GI50", "setting": "MDA-MB-231", "value": "2.43 µM (inactive)"}, {"measurement": "GI50", "setting": "MDA-MB-435", "value": "5.01 µM (inactive)"}, {"measurement": "GI50", "setting": "NCI-H522", "value": "6.9 µM (inactive)"}, {"measurement": "GI50", "setting": "OVCAR-3", "value": "5.85 µM (inactive)"}, {"measurement": "GI50", "setting": "SF-268", "value": "6.19 µM (inactive)"}, {"measurement": "GI50", "setting": "SF-295", "value": "7.73 µM (inactive)"}, {"measurement": "GI50", "setting": "SK-MEL-2", "value": "5.32 µM (inactive)"}, {"measurement": "GI50", "setting": "SR", "value": "1.19 µM (inactive)"}, {"measurement": "GI50", "setting": "SW-620", "value": "2.92 µM (inactive)"}, {"measurement": "GI50", "setting": "T47D", "value": "9.93 µM (inactive)"}, {"measurement": "GI50", "setting": "TK-10", "value": "7.85 µM (inactive)"}, {"measurement": "GI50", "setting": "UACC-62", "value": "2.86 µM (inactive)"}, {"measurement": "GI50", "setting": "UO-31", "value": "2.32 µM (inactive)"}]}
